How the values were obtained:
[1] = test system: eIF2α in HEK293-EGFP-eIF2α cells; test: PERK Cellular Assay (HEK293-EGFP-eIF2α cells, tunicamycin-induced ER stress, TR-FRET); type: cell-based; settings: tunicamycin 2 hours
Procedure: Stable cell lines were created in HEK293 cells using lentiviral particles harboring an expression vector for GFP-eIF2α. Cells were selected using puromycin and enriched using fluorescence activated cell sorting against GFP. HEK293-EGFP-eIF2α cells were plated at 5000 cells/well in 384-well assay plates and incubated overnight at 37° C., 5% CO2. Inhibitor compounds were added to the wells by Echo acoustic dispensing and incubated for 30 minutes at 37° C., 5% CO2 prior to induction of ER stress by addition of tunicamycin to […] for 2 hours. Cells were lysed and TR-FRET was measured in an EnVision plate reader (PerkinElmer). FRET ratio data was normalized to signal from lysates treated with DMSO vehicle control and plotted as percent inhibition against 10-point; 3-fold dilution series of inhibitors. IC50 values were calculated using 4-parameter logistical fitting in XLFit.

[2] = biological target: Recombinant human EIF2AK3 (PERK) catalytic domain (amino acids 536-1116) (Homo sapiens (Human), UniProt Q9NZJ5); test: PERK In Vitro Activity Assay (isolated), TR-FRET kinase assay; settings: isolated PERK enzyme, 1.5 μM ATP, read-out: Biochemical IC50
Recombinant human EIF2AK3 (PERK) catalytic domain (amino acids 536-1116), sequence (Q9NZJ5 536-1116): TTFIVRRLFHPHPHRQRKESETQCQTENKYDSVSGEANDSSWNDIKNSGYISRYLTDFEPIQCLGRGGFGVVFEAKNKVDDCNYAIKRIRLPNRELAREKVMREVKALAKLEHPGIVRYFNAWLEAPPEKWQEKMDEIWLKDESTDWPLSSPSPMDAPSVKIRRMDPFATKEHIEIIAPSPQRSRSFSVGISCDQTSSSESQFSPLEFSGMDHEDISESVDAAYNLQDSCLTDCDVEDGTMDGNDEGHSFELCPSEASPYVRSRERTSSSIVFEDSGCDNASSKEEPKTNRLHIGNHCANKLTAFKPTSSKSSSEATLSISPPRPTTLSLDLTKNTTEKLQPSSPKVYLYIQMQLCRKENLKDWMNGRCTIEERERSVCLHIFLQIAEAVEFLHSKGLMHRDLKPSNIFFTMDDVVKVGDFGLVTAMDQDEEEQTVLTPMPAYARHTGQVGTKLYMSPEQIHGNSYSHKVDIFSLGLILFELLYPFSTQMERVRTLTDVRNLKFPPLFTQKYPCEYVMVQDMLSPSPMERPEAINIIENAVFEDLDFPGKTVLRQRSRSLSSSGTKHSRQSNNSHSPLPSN
Text: PERK In Vitro Activity Assay (isolated):
In vitro Inhibition of PERK Enzyme Activity (isolated) Recombinant human EIF2AK2 (PKR) catalytic domain (amino acids 252-551), EIF2AK3 (PERK) catalytic domain (amino acids 536-1116), GFP-eIF2a substrate, and Terbium-labelled phospho-eIF2a antibody is obtained (Invitrogen, Carlsbad, CA).
Express and purify HIS-SUMO-GCN2 catalytic domain (amino acids 584-1019) from E. coli. Perform TR-FRET kinase assays in the absence or presence of inhibitors in a reaction buffer consisting of 50 mM HEPES, pH 7.5, 10 mM MgCb, 1.0 mM EGTA, and 0.01% Brij-35, and 100-200 nM GFP-eIF2a substrate. […] Add test compound, initiate the reaction by addition of enzyme, and incubate at room temperature for 45 minutes. Stop the reaction by addition of EDTA to a final concentration of 10 mM, add Terbium-labelled phospho-eIF2a antibody at a final concentration of 2 nM, and incubate for 90 minutes. Monitor the resulting fluorescence in an EnVison® Multilabel reader (PerkinElmer, Waltham, MA). Determine TR-FRET ratios and the resulting IC50 values using a 4-parameter nonlinear logistic equation as shown: Y=(A+((B−A)/(1+(C/x)AD)))) where, Y=% specific inhibition, A=Bottom of the curve, B=Top of the curve, C=absolute IC50 (concentration causing 50% inhibition), and D=hill slope.

SMILES | IC50 [1] | IC50 [2] | IC50 ([1]; 2 h)
Cc1cn2c(C)nc(-c3ccc(NC(=O)C(O)c4cccc(F)c4)cc3C)c2c(N)n1 (single isomer, unassigned) [Example 3, N-(4-(8-amino-3,6-dimethylimidazo[1,5-a]pyrazin-1-yl)-3-methylphenyl)-2-(3-fluorophenyl)-2-hydroxyacetamide] | 26 to 50 nM | 1 to 25 nM | –
Cc1cn2c(C)nc(-c3ccc(NC(=O)C(O)c4cccc(F)c4)cc3C)c2c(N)n1 (single isomer, unassigned) [Example 4, N-(4-(8-amino-3,6-dimethylimidazo[1,5-a]pyrazin-1-yl)-3-methylphenyl)-2-(3-fluorophenyl)-2-hydroxyacetamide] | 251 to 500 nM | 51 to 100 nM | –
Cc1cc(NC(=O)C(O)c2cccc(F)c2)ccc1-c1nc(C)n2ccnc(N)c12 (stereo not shown) [Example 1, N-(4-(8-amino-3-methylimidazo[1,5-a]pyrazin-1-yl)-3-methylphenyl)-2-(3-fluorophenyl)-2-hydroxyacetamide] | 26 to 50 nM | 1 to 25 nM | –
Cc1cc(NC(=O)C(O)c2cccc(F)c2)ccc1-c1nc(C)n2ccnc(N)c12 (stereo not shown) [Example 2, N-(4-(8-amino-3-methylimidazo[1,5-a]pyrazin-1-yl)-3-methylphenyl)-2-(3-fluorophenyl)-2-hydroxyacetamide] | 251 to 500 nM | 26 to 50 nM | –
[2H]C([2H])([2H])c1nc(-c2ccc(NC(=O)C(O)c3cccc(F)c3)cc2C)c2c(N)nc(C)cn12 (stereo not shown) [Example 5, N-(4-(8-amino-6-methyl-3-(trideuteriomethyl)imidazo[1,5-a]pyrazin-1-yl)-3-methylphenyl)-2-(3-fluorophenyl)-2-hydroxyacetamide] | – | 1 to 25 nM | 1 to 25 nM
Cc1cc(NC(=O)C(O)c2cccc(F)c2)ccc1-c1nc(C)n2c(C)cnc(N)c12 (stereo not shown) [Example 8, N-(4-(8-amino-3,5-dimethylimidazo[1,5-a]pyrazin-1-yl)-3-methylphenyl)-2-(3-fluorophenyl)-2-hydroxyacetamide] | 26 to 50 nM | 1 to 25 nM | –
Cc1cc(NC(=O)C(O)c2cccc(F)c2)ccc1-c1nc(C)n2c(C)cnc(N)c12 (stereo not shown) [Example 9, N-(4-(8-amino-3,5-dimethylimidazo[1,5-a]pyrazin-1-yl)-3-methylphenyl)-2-(3-fluorophenyl)-2-hydroxyacetamide] | 251 to 500 nM | 51 to 100 nM | –
[2H]C([2H])([2H])c1nc(-c2ccc(NC(=O)C(O)c3cccc(F)c3)cc2C)c2c(N)ncc(C)n12 (stereo not shown) [Example 10, N-(4-(8-amino-5-methyl-3-(trideuteriomethyl)imidazo[1,5-a]pyrazin-1-yl)-3-methylphenyl)-2-(3-fluorophenyl)-2-hydroxyacetamide] | – | 1 to 25 nM | 1 to 25 nM
[2H]C([2H])([2H])c1nc(-c2ccc(NC(=O)C(O)c3cccc(F)c3)cc2C)c2c(N)ncc(C)n12 (stereo not shown) [Example 11, N-(4-(8-amino-5-methyl-3-(trideuteriomethyl)imidazo[1,5-a]pyrazin-1-yl)-3-methylphenyl)-2-(3-fluorophenyl)-2-hydroxyacetamide] | 1 to 25 nM | – | –
[2H]C([2H])([2H])c1nc(-c2ccc(NC(=O)C(O)c3cccc(C(F)(F)F)c3)cc2C)c2c(N)nc(C)cn12 (stereo not shown) [Example 14, N-[4-[8-amino-6-methyl-3-(trideuteriomethyl)imidazo[1,5-a]pyrazin-1-yl]-3-methyl-phenyl]-2-hydroxy-2-[3-(trifluoromethyl)phenyl]acetamide] | 26 to 50 nM | 1 to 25 nM | –
[2H]C([2H])([2H])c1nc(-c2ccc(NC(=O)C(O)c3cccc(C(F)(F)F)c3)cc2C)c2c(N)nc(C)cn12 (stereo not shown) [Example 15, N-[4-[8-amino-6-methyl-3-(trideuteriomethyl)imidazo[1,5-a]pyrazin-1-yl]-3-methyl-phenyl]-2-hydroxy-2-[3-(trifluoromethyl)phenyl]acetamide] | 251 to 500 nM | 101 to 250 nM | –
Cc1cn2c(C3CC(C)(O)C3)nc(-c3ccc(NC(=O)C(O)c4cccc(F)c4)cc3C)c2c(N)n1 (stereo not shown) [Example 24, N-(4-(8-amino-3-(3-hydroxy-3-methylcyclobutyl)-6-methylimidazo [1,5-a]pyrazin-1-yl)-3-methyl-phenyl)-2-(3-fluorophenyl)-2-hydroxyacetamide] | 101 to 250 nM | – | –
Cc1cn2c(C3CC(C)(O)C3)nc(-c3ccc(NC(=O)C(O)c4cccc(F)c4)cc3C)c2c(N)n1 (stereo not shown) [Example 25, N-(4-(8-amino-3-(3-hydroxy-3-methylcyclobutyl)-6-methylimidazo [1,5-a]pyrazin-1-yl)-3-methyl-phenyl)-2-(3-fluorophenyl)-2-hydroxyacetamide] | 1000 to 2000 nM | – | –
[2H]C([2H])([2H])c1nc(-c2ccc(NC(=O)C(O)c3cccc(Cl)c3)cc2C)c2c(N)ncc(C(F)(F)F)n12 (stereo not shown) [Example 40, N-[4-[8-amino-3-(trideuteriomethyl)-5-(trifluoromethyl)imidazo[1,5-a]pyrazin-1-yl]-3-methyl-phenyl]-2-(3-chlorophenyl)-2-hydroxy-acetamide] | – | 1 to 25 nM | –
[2H]C([2H])([2H])c1nc(-c2ccc(NC(=O)C(O)c3cc(F)cc(F)c3)cc2C)c2c(N)ncc(Cl)n12 (stereo not shown) [Example 49, N-[4-[8-amino-5-chloro-3-(trideuteriomethyl)imidazo[1,5-a]pyrazin-1-yl]-3-methyl-phenyl]-2-(3,5-difluoro-phenyl)-2-hydroxy-acetamide] | 1 to 25 nM | – | –
[2H]C([2H])([2H])c1nc(-c2ccc(NC(=O)C(O)c3cccc(Cl)c3)cc2F)c2c(N)ncc(Cl)n12 (stereo not shown) [Example 86, N-[4-[8-amino-5-chloro-3-(trideuteriomethyl)imidazo[1,5-a]pyrazin-1-yl]-3-fluoro-phenyl]-2-(3-chlorophenyl)-2-hydroxy-acetamide] | – | 1 to 25 nM | –
[2H]C([2H])([2H])c1nc(-c2ccc(NC(=O)C(O)c3cccc(C(F)(F)F)c3)cc2F)c2c(N)nc(C)cn12 (stereo not shown) [Example 97, N-[4-[8-amino-6-methyl-3-(trideuteriomethyl)imidazo[1,5-a]pyrazin-1-yl]-3-fluoro-phenyl]-2-hydroxy-2-[3-(trifluoromethyl)phenyl]acetamide] | 251 to 500 nM | – | –
[2H]C([2H])([2H])c1nc(-c2ccc(NC(=O)C(O)c3cccc(C(F)(F)F)c3)cc2F)c2c(N)ncc(Cl)n12 (stereo not shown) [Example 101, N-[4-[8-amino-5-chloro-3-(trideuteriomethyl)imidazo[1,5-a]pyrazin-1-yl]-3-fluoro-phenyl]-2-hydroxy-2-[3-(trifluoromethyl)phenyl]acetamide] | 1 to 25 nM | – | –
[2H]C([2H])([2H])c1nc(-c2ccc(NC(=O)C(O)c3cc(F)cc(F)c3)cc2F)c2c(N)ncc(Cl)n12 (stereo not shown) [Example 109, N-[4-[8-amino-5-chloro-3-(trideuteriomethyl)imidazo[1,5-a]pyrazin-1-yl]-3-fluoro-phenyl]-2-(3,5-difluoro-phenyl)-2-hydroxy-acetamide] | 1 to 25 nM | – | –
Cc1cn2c(C)nc(-c3ccc(NC(=O)C(O)c4cccc(F)c4)c(F)c3)c2c(N)n1 (stereo not shown) [Example 118, N-(4-(8-amino-3,6-dimethyl-imidazo[1,5-a]pyrazin-1-yl)-2-fluorophenyl)-2-(3-fluorophenyl)-2-hydroxy-acetamide] | 4000 to 5000 nM | – | –
Cc1cn2c(C)nc(-c3ccc(NC(=O)C(O)c4cccc(F)c4)c(F)c3)c2c(N)n1 (stereo not shown) [Example 119, N-(4-(8-amino-3,6-dimethyl-imidazo[1,5-a]pyrazin-1-yl)-2-fluorophenyl)-2-(3-fluorophenyl)-2-hydroxy-acetamide] | 26 to 50 nM | – | –
[2H]C([2H])([2H])c1nc(-c2ccc(NC(=O)C(O)c3cccc(F)c3)c(F)c2)c2c(N)nc(C)cn12 (stereo not shown) [Example 120, N-[4-[8-amino-6-methyl-3-(trideuteriomethyl)imidazo[1,5-a]pyrazin-1-yl]-2-fluorophenyl]-2-(3-fluorophenyl)-2-hydroxy-acetamide] | 1000 to 2000 nM | – | –
[2H]C([2H])([2H])c1nc(-c2ccc(NC(=O)C(O)c3cccc(F)c3)c(F)c2)c2c(N)nc(C)cn12 (stereo not shown) [Example 121, N-[4-[8-amino-6-methyl-3-(trideuteriomethyl)imidazo[1,5-a]pyrazin-1-yl]-2-fluorophenyl]-2-(3-fluorophenyl)-2-hydroxy-acetamide] | 51 to 100 nM | – | –
[2H]C([2H])([2H])c1nc(-c2ccc(NC(=O)C(O)c3cccc(F)c3)nc2C)c2c(N)ncc(C)n12 (stereo not shown) [Example 172, N-[5-[8-amino-5-methyl-3-(trideuteriomethyl)imidazo[1,5-a]pyrazin-1-yl]-6-methyl-2-pyridyl]-2-(3-fluorophenyl)-2-hydroxy-acetamide] | 501 to 1000 nM | – | –

Source: patent US12331054B2, “Perk inhibiting imidazolopyrazine compounds” (HiberCell, Inc., priority 2019, dated 2025)
